No end group written: not given here.

For test [1], the system named is 40 non-kinase enzyme assays, including phosphatases and proteases. The test can be described thus: Panel of 40 non-kinase enzyme assays. In kind it is biochemical. Conditions: 100 μM; data not shown.
For test [2], the system named is HL1 cells. The test can be described thus: LDH release assay in HL1 cells (1% hypoxia or normoxia). Conditions: for LDH release: 1% hypoxia. In kind it is cell-based, mouse. As for the experimental part: H9C2 is a myoblast cell line derived from rat myocardium obtained from ATCC® (CRL-1446, ATCC, Manassas, Va.) and cultured according to the recommended protocols. Briefly, cells were maintained at 37° C. with 5% CO2 in DMEM supplemented with 10% fetal bovine serum and antibiotics (100 U/ml penicillin, […] streptomycin) and split at a ratio of 1:4 using 0.05% trypsin every 36 hours. HL-1 cells were obtained from Dr. William Claycomb and cultured according to the published protocols [Claycomb W C, Lanson N A, Jr., Stallworth B S, Egeland D B, Delcarpio J B, Bahinski A, et al. HL-1 cells: a cardiac muscle cell line that contracts and retains phenotypic characteristics of the adult cardiomyocyte. Proc. Natl Acad. Sci. USA. 1998; 95:2979-84; White S M, Constantin P E, Claycomb W C. Cardiac physiology at the cellular level: use of cultured HL-1 cardiomyocytes for studies of cardiac muscle cell structure and function. Am. J. Physiol. Heart Circul. Physiol. 2004; 286:H823-9]. Briefly, cells were cultured in Claycomb medium (JRH Biosciences, USA) supplemented with 10% fetal bovine serum (JRH Biosciences), 2 mM L-glutamine (Gibco, Grand Island, N.Y.), 100 μM norepinephrine (Sigma, USA), 100 U/mL penicillin, and 100 μg/mL streptomycin (Gibco) in flasks precoated with fibronectin and gelatin (Sigma), then incubated at 37° C. in 5% CO2. Cells were split at a ratio of 1:4 using 0.05% trypsin every 48 hours. Primary cardiac fibroblasts were obtained from 2-4-day-old Sprague Dawley rats, according to previously described protocols (cat. #L K003300, Worthington Biochemical Corp., Lakewood, N.J.) [Toraason M, Luken M E, Breitenstein M, Krueger J A, Biagini R E. Comparative toxicity of allylamine and acrolein in cultured myocytes and fibroblasts from neonatal rat heart. Toxicology. […]
(§1) Cells were rinsed in PMS and grown in DMEM (cat. #11966-025, Gibco) for 2 hours prior to initiating hypoxia (simulated ischemia). […] Three different time points were adopted for each of the three cell lines according to the severity of cell death under hypoxia determined by LDH release: for H9C2 cell line: 8 hr; 16 hr; 24 hr; for HL-1 cell line: 4 hr; 8 hr; 12 hr; for cardiac fibroblast cell line: 16 hr; 32 hr; 48 hr.
(§2) Cell death was first determined using an LDH release assay (cat. #630117, Clontech), according to the manufacturer's instructions. […] Caspase 3/7 activity was next determined using a commercial Caspase 3/7 activity kit (Cat. #G8091, Promega, Madison, Wis. 53711) in a 384 well plate (Cat. #781903, Greiner bio-one) according to the manufacturer's instructions. […] The resulting cell lysates (25 μl, with 0.6 ug total protein) and Caspase-Glo 3/7 Reagent were added to each well in a 1:1 ratio and the luminescence was read (CLARIOstar, BMG LABTECH GmbH). […]
For orientation: LDH in the medium is a marker of cell lysis.

The subject of another test is MK2. Put plainly: Immunoblot analysis of MK2 activity (HNRNPA0, total MK2, p-MK2) in HL1 cells. The test is classed as cell-based, mouse. The procedure:
Cells were rinsed in PMS and grown in DMEM (cat. #11966-025, Gibco) for 2 hours prior to initiating hypoxia (simulated ischemia). Hypoxia was induced by placing cells in a hypoxia chamber ([…] 150i, Thermo Scientific) in a mixture of 5% CO2/95% N2 to attain a 1% oxygen concentration, according to the manufacturer's instruction. […] The MMI-0100 peptide was added to the cells at the start of the ischemia time. Cells were cultured in 12 well plates. At the time of performing the experiments, all cultures were approximately 70-90% confluent. Three different time points were adopted for each of the three cell lines according to the severity of cell death under hypoxia determined by LDH release: for H9C2 cell line: 8 hr; 16 hr; 24 hr; for HL-1 cell line: 4 hr; 8 hr; 12 hr; for cardiac fibroblast cell line: 16 hr; 32 hr; 48 hr.
The left over cell lysates from the Caspase activity assay were used for the Western blots. […] After blocking with recommended blocking reagents for 1 h at the room temperature, the membranes were incubated overnight at 4° C. with primary antibodies in TBS-T, and then incubated with secondary antibodies conjugated with HRP in TBS-T. HNRNPA0, MAPK2, and phospho-MAPK2 proteins were detected using anti-HNRNPA0 (cat. #HPA036569, 1:1000, Sigma-Aldrich), anti-MAPKAPK2 (cat. #SAB4300553, Sigma-Aldrich), and anti-phospho-MAPKAPK2 (cat. #SAB4300241, 1:1000, Sigma-Aldrich). […]
A general note: A western blot detects proteins with antibodies after separation by electrophoresis.

In test [3] the test system is bleomycin-induced pulmonary fibrosis. Conditions: Vittal et al. 2013; cited from earlier work.
The subject of test [4] is HL1 cells. Put plainly: Caspase 3/7 activity in HL1 cells challenged with 1% hypoxia. The test is classed as cell-based, mouse. Conditions: 100 μM, 12 hours. As for the experimental part:
H9C2 is a myoblast cell line derived from rat myocardium obtained from ATCC® (CRL-1446, ATCC, Manassas, Va.) and cultured according to the recommended protocols. Briefly, cells were maintained at 37° C. with 5% CO2 in DMEM supplemented with 10% fetal bovine serum and antibiotics (100 U/ml penicillin, […] streptomycin) and split at a ratio of 1:4 using 0.05% trypsin every 36 hours. […]
as §1, §2

With YARAAARQARAKALARQLGVAA [MMI-0100], in test [1], the “interaction at non-kinase enzyme targets (significant if greater than 50% inhibition of activity)” value was “No significant interaction”. In addition, the LDH release entry in the test with HL1 cells [2] (100 μM only, 8 hours) is recorded as “enhanced”; in the test with HL1 cells [2] (20 and 100 μM, 4 hours) it was “significantly enhanced”. In addition, the “LDH release in normoxic conditions” value in the test on HL1 cells [2] (100 μM, normoxia (FIG. 11B)) is on record as “unexpectedly inhibited”; with HL1 cells [2] (absence of hypoxia, 4 hours) it was “did not enhance LDH release”. In the test on MK2 (100 μM, 4 and 8 hours after induction by hypoxia), the HNRNPA0 protein expression entry is listed as “inhibited”. In the test on MK2 (20 or 100 μM, 1% hypoxia), the “total MK2 and p-MK2 protein levels” value was “not changed”. In addition, in test [3], the “inflammation and fibrosis in bleomycin-induced pulmonary fibrosis” value was “inhibits inflammation and fibrosis”. Further, the “caspase 3/7 activity” value in the test with HL1 cells [4] is reported as “inhibited”.
